US20230220331A1, “TEMPORARY TREATMENT MEDIUM, TREATMENT KIT, EMBRYOGENESIS ARREST INHIBITOR, EMBRYOGENESIS ARREST INHIBITORY METHOD, DEVELOPMENTAL ENGINEERING PRODUCT PREPARATION METHOD, TRANSPLANTATION METHOD, THERAPEUTIC METHOD, AND DEVELOPMENTAL ENGINEERING PRODUCT” (priority 2020, published 2023)

Legend:
[1] = test system: Pronuclear stage embryo of C57BL/6J; test: Flox mouse production by the 2STEP method, Mecp2 / Drb1 (Treatment Example 2); assay type: cell-based
Experimental: 1. Up to 3 hours before TAKE, Y-27632-added mWM medium (Y-27632 final concentration 10 μM, an example of the “temporary treatment medium” of this example), Y-27632-free mWM medium (an example of “normal medium” of this example), 5 drops of each medium were dropped on 35 mm Petri dish, and then covered with paraffin oil. For the drops, twice the number of the drops plates to be performed TAKE were prepared.
2. Pronuclear stage embryos were collected, placed in Y-27632-added mWM medium, and cultured for about 30 minutes to 1 hour (temporary treatment).
3. After that, the first TAKE was performed.
3a. In the case of frozen eggs, after the first TAKE, they were placed in a Y-27632-added mWM medium and cultured for about 30 minutes to 1 hour (temporary treatment).
3b. In the case of unfrozen eggs, after the first TAKE, they were placed in a Y-27632-added mWM medium and cultured under 37° C. and 5% CO2 (5% O2) conditions until the next day (temporary treatment).
4. After the temporary treatment, the embryos were placed in Y-27632-free mWM medium and cultured at 37° C. and 5% CO2 (5% O2) conditions until the next day.
5. Both were confirmed at the next day, and the embryos at the 2-cell stage were subjected to the second TAKE.
6. After the second TAKE, the embryos were placed in Y-27632-added mWM medium and cultured for about 30 minutes to 1 hour (temporary treatment).
7. Then, they were transferred to Y-27632-free mWM medium. If necessary, culture was continued or embryo transfer was performed.
Therefore, in this preparation example, the temporary treatment medium containing Y-27632 was temporarily treated before and after the electroporation (EP) of the 2STEP method. Pronuclear stage embryo of C57BL/6J (CLEA Japan, Inc.) were used as an in-vitro-culture and female MCH (CLEA Japan, Inc.) were used as recipient.
The present inventors conducted an experiment to obtain Flox mice by the 2STEP method targeting the Mecp2 gene.
In Table 2, “m” indicates treatment with the normal medium, and “Y” indicates temporary treatment with the temporary treatment medium. […] That is, “m->m” uses the normal medium in the both step, “m->Y” was temporarily treated with the temporary treatment medium only in the first electroporation step, and “Y->Y” was temporarily treated with the temporary treatment medium in both steps.
In each column, the proportions that the loxP sequence is inserted only on the left side by the first electroporation step (Left loxP), the loxP sequence is inserted only on the right side by the second electroporation step (Right loxP), and both loxP sequences inserted by both steps (2loxP) were respectively shown.

[2] = test system: Early embryos of the heterologous inbred SPR2 mouse; test: ES cell establishment from electroporated early embryos (Treatment Example 4); assay type: cell-based, Mus spretus; conditions: SPR2 early embryos cultured in Y-27632 medium, then electroporated
Experimental: 1. Up to 3 hours before TAKE, Y-27632-added mWM medium (Y-27632 final concentration 10 μM, an example of the “temporary treatment medium” of this example), Y-27632-free mWM medium (an example of “normal medium” of this example) were dropped into 35 mm Petri dishes by 5 drops, respectively, to prepare drops covered with paraffin oil.
2. Two-cell stage embryos were collected from the drops or thawed, placed in Y-27632-added mWM medium, and cultured for about 30 minutes to 1 hour (temporary treatment).
3. After that, TAKE was performed.
4. After TAKE, the embryos were placed in Y-27632-added mWM medium and cultured for about 30 minutes to 1 hour (temporary treatment). Then, the embryos were placed in Y-27632-free mWM medium and cultured at 37° C. under 5% CO2 and 5% O2 conditions until transplantation.
5. Then, if necessary, the culture was continued in the Y-27632-free mWM medium to establish ES cells.
When Mus caroli ES cells were knocked out of the Tyr gene by genome editing and a part of them was analyzed, it was shown that NHEJ occurred and heterologous mouse ES cells were established.

[3] = test system: NOD-scid mouse embryos; test: Bbox1 and IL2rg DKO screening in NOD-scid mice (Treatment Example 14); assay type: cell-based
Experimental: Then, in the same manner as in Treatment Example 7 of Example 1, in the NOD-scid strain, which is another strain of a severe combined immunodeficiency mouse, genome editing of multiple genes was performed, and individuals were produced. Here, individuals in which both the mBBOX1 and mIL2RG genes of NOD-scid mice were knocked out were prepared by the same treatment method as the above-mentioned treatment example used for BALB/c nude.

[4] = test system: unfrozen pronuclear stage embryo (1 cell) of the inbred rat F344; test: Genome-edited individuals by unfrozen 1-cell TAKE of F344 (Treatment Example 16); assay type: cell-based; conditions: F344 unfrozen 1 cell; for NUMBER OF NEWBORNS: 2× gRNA, 14 pulses, 20% reduction rate; for KO rate (Large deletion) (%): KO individuals / newborns analyzed
Excerpt: Next, in the same manner as in Treatment Example 1 according to Example 1, a knock-out by the electroporation method was also produced in an unfrozen pronuclear stage embryo (1 cell) of the inbred rat F344. The conditions at this time were that the gRNA concentration was twice the specified amount, the pulse was 14 times, and the reduction rate was 20%.

[5] = group Y → Y, 2STEP, Mecp2-Flox, blastocysts, listed as Y
[6] = group m → Y, 2STEP, target Mecp2-Flox
[7] = NOD-scid F0, Bbox1 and IL2rg, listed as temporary treatment medium

C[C@@H](N)[C@H]1CC[C@H](C(=O)Nc2ccncc2)CC1 [Y-27632, trans-4-[(1R)-1-Aminoethyl]-N-4-pyrid inylcyclohexanecarboxamide]
Flox neonates obtained (%) ([1]; 2STEP, Mecp2, neonates, Y-27632 added): 4% | Left loxP (proportion inserted) ([1]; group Y → Y (temporary treatment in both steps), 2STEP, Mecp2-Flox): 1/15 | Left loxP (%) ([1]; group Y → Y, 2STEP, Mecp2-Flox): (6.7%) | Right loxP (%) ([1]; group Y → Y, 2STEP, Mecp2-Flox): (13.3%) | Right loxP (proportion inserted) ([1]; group Y → Y, 2STEP, Mecp2-Flox): 2/15 | 2loxP (%), Flox blastocysts ([1]; group Y → Y, 2STEP, Mecp2-Flox, blastocysts): 7% | 2loxP (%), Flox blastocysts [1, 5]: (6.7%) | 2loxP (proportion, Flox blastocysts) [1, 5]: 1/15 | 2loxP (%) [1, 6]: (0%) | 2loxP (proportion, both loxP inserted) [1, 6]: 0/17 | Left loxP (%) [1, 6]: (5.9%) | Left loxP (proportion inserted) [1, 6]: 1/17 | Right loxP (%) [1, 6]: (5.9%) | Right loxP (proportion inserted) [1, 6]: 1/17 | inbred strains of Flox mice obtained by the 2STEP method ([1]; two types of genes (Mecp2, Drb1)): obtained only from the experimental groups to which Y-27632 were added | ES cells established [2]: at a high rate | individuals mutated at Bbox1 Ex3 (chr. 2) (proportion) ([3]; NOD-scid F0): #U: unknown mutation (4/9) (4/9) | individuals mutated at Il2rg (chr. X) Ex2 (proportion) ([3]; NOD-scid F0): #U: unknown mutation (4/9) (4/9) | individuals mutated at Il2rg (chr. X) Ex3 (proportion) ([3]; NOD-scid F0): #U: unknown mutation (4/9) (4/9) | individuals with mutations in one of the two genes (%) [3, 7]: 66.7% | individuals with mutations in one of the two genes (proportion) [3, 7]: 6 out of 9 and (6/9) | NUMBER OF NEWBORNS ([4]; 25 TAKE embryos, 1 recipient): 4 | Number of KO individuals (large deletion) ([4]; 25 TAKE embryos, 1 recipient, 4 newborns analyzed): 0 | KO rate (Large deletion) (%) ([4]; 25 TAKE embryos): (0%) | NUMBER OF NEWBORNS ([4]; 75 TAKE embryos, 3 recipients): 16 | Number of KO individuals (large deletion) ([4]; 75 TAKE embryos, 3 recipients, 13 newborns analyzed): 7 | KO rate (Large deletion) (%) ([4]; 75 TAKE embryos): (53.8%)
